# How the values were obtained:
# Type in all cases: biochemical
# Human PKK = target: T1, Human PKK (Homo sapiens, UniProt P03952); assay: Inhibition of PKK using an endpoint assay (human PKK); settings: fluorogenic substrate H-Pro-Phe-Arg-AMC, 1 h room temperature, method names human or rat PKK, table does not say which
# T1 construct: purchased Enzyme Research Laboratories
# Procedure, shortened: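 Human PKK inhibition measured in 100 mM Tris, 150 mM NaCl, pH 7.8, 0.1% BSA, 0.05% Tween20, 1% DMSO. Endpoint format: reaction stopped with PPACK II at 1 μM final, fluorescence read at 355 nm excitation/460 nm emission.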
# [1] = target: T2, PKK in kaolin activated human platelet poor plasma (Homo sapiens, UniProt P03952); assay: Inhibition of PKK in kaolin activated human PPP; settings: 25-750 μg/mL kaolin, global fit, text b200 calls the values IC90;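 further: readout is the rate of fluorogenic substrate cleavage in rfu per min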
# T2 construct: Platelet poor plasma (PPP) obtained from human wholeblood; from tissue
# Description: Platelet poor plasma (PPP) obtained from human wholeblood, anticoagulated with Na-Citrate, is incubated with various concentrations of the test compound together with either 25, 75, 250, or 750 μg/mL kaolin in assay buffer for 20 min at 37° C. such that for each kaolin dose used a concentration response is obtained for the test compound.
# human TK1 = target: T3, human TK1 (Homo sapiens, UniProt P06870); assay: Inhibition of TK1 (Ki); settings: activated human TK1, substrate H-Pro-Phe-Arg-AMC, 24° C.
# T3 construct: purchased R&D Systems
# Description: The ability of compounds of formula (I) to inhibit plasma kallikrein (PKK), Factor XIIa (FXIIa), Factor XIa (FXIa), Factor Xa (FXa), Factor IIa (alpha-thrombin; FIIa), plasmin, trypsin, tissue kallikrein 1 (TK1), Factor VIIa (FVIIa), or FVIIa complexed with Tissue Factor, phospholipids and CaCl2 (FVIIa/TF/PL/CaCl2) is determined using the following biochemical assays in assay buffer (100 mM Tris, 150 mM NaCL, adjusted to a pH of 7.8 with HCl, and containing 0.1% (w/v) BSA and 0.05% (v/v) Tween20) in the presence of 1% (v/v) DMSO:
# Prior to the assay, human TK1 (R&D Systems) is activated by incubation with human trypsin (Calbiochem) in a 1:10,000 ratio for 15 min at 37° C. For assaying TK1 inhibitory activity, activated TK1 (31.25 nM or 1 U/mL) is incubated at 24° C. with 0.1 mM fluorogenic substrate H-Pro-Phe-Arg-AMC (11295 from Bachem) and various concentrations of the test compound in assay buffer. Measurements are performed in a kinetic interval every 2nd minute for 16 min using a Spectramax M5 (Molecular Devices) with the following settings of the wavelength excitation of 350 nm and wavelength emission of 450 nm.
# The pIC50 values are then fitted using a four-parametric fitting procedure using GraphPad Prism (version 6; GraphPad Software, Inc.). Respective Ki values are obtained by correction of the IC50 values for the respective KM value of the used substrate (see Table A for the obtained KM values of the used substrates) using the following formula:
# [formula] Where the IC50 is in molar and the KM value in mM.
# T1 sequence (P03952 20-390 limits assumed): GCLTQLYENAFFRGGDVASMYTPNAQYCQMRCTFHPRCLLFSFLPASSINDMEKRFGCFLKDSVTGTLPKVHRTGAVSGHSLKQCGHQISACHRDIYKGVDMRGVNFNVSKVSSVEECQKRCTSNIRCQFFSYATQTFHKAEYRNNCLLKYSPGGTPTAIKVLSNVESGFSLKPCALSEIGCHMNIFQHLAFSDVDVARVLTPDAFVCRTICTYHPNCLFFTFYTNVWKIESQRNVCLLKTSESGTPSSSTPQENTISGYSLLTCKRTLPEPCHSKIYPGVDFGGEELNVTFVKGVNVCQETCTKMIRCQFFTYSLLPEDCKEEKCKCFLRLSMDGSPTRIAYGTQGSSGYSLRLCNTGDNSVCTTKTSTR
# T1 sequence (P03952 391-638 limits assumed): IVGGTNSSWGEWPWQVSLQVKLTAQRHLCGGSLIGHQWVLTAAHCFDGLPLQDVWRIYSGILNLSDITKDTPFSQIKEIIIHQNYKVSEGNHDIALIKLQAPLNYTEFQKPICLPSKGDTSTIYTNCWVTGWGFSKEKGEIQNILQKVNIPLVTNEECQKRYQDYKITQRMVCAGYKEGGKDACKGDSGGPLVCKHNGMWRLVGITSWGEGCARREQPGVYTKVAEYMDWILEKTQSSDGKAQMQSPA
# T2 sequence (P03952 391-638 limits assumed): as above
# T2 sequence (P03952 20-390 limits assumed): as the sequence (P03952 20-390 limits assumed) above
# T3 sequence (P06870 25-262): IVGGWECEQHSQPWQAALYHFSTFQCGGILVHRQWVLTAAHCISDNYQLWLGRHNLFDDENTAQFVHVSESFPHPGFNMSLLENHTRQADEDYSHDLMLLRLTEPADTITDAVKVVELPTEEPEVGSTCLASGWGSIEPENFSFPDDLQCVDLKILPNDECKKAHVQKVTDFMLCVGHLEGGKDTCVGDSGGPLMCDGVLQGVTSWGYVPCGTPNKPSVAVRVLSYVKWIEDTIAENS
IC50 (Human PKK) [nM],IC50 [1] [nM],Ki (human TK1) [nM],Structure (SMILES)
0.8,173,> 10000,"Cn1cnc2c1CC[C@H]2NC(=O)c1cn(Cc2ccc(N3CC4(CC4)C3)nc2C(F)F)cn1 [Example 47, 1-[(6-{5-Azaspiro[2.3]hexan-5-yl}-2-(difluoromethyl)-pyridin-3-yl)methyl]-N-[(4R)-1-methyl-1H,4H,5H,6H-cyclopenta[d]imidazol-4-yl]-1H-imidazole-4-carboxamide]"
2.5,254,> 10000,"COCc1nc(N2CC3CC3C2)ccc1Cn1cc(C(=O)N[C@@H]2CCc3c2ncn3C)cn1 (stereo partly drawn) [Example 49, 1-[(6-{3-Azabicyclo[3.1.0]hexan-3-yl}-2-(methoxymethyl)-pyridin-3-yl)methyl]-N-[(4R)-1-methyl-1H,4H,5H,6H-cyclopenta[d]imidazol-4-yl]-1H-pyrazole-4-carboxamide]"
1,213,> 10000,"CCc1nc(N2CC3(CC3)C2)ccc1Cn1cc(C(=O)N[C@@H]2CCc3c2ncn3C)cn1 [Example 51, 1-[(6-{5-Azaspiro[2.3]hexan-5-yl}-2-ethylpyridin-3-yl)methyl]-N-[(4R)-1-methyl-1H,4H,5H,6H-cyclopenta[d]imidazol-4-yl]-1H-pyrazole-4-carboxamide]"
1.1,155,> 10000,"Cn1cnc2c1CC[C@H]2NC(=O)c1cnn(Cc2ccc(N3CC4(CC4)C3)nc2C(F)F)c1 [Example 52, 1-[(6-{5-Azaspiro[2.3]hexan-5-yl}-2-(difluoromethyl)-pyridin-3-yl)methyl]-N-[(4R)-1-methyl-1H,4H,5H,6H-cyclopenta[d]imidazol-4-yl]-1H-pyrazole-4-carboxamide]"
0.5,192,> 10000,"CCc1nc(N2CC3CC3C2)ccc1Cn1cnc(C(=O)N[C@@H]2CCc3c2ncn3C)c1 (stereo partly drawn) [Example 75, 1-[(6-{3-Azabicyclo[3.1.0]hexan-3-yl}-2-ethylpyridin-3-yl)methyl]-N-[(4R)-1-methyl-1H,4H,5H,6H-cyclopenta[d]imidazol-4-yl]-1H-imidazole-4-carboxamide]"
4.7,495,> 10000,"Cn1cnc2c1CC[C@H]2NC(=O)c1cnn(Cc2ccc(N3CC4C(C3)C4(F)F)nc2)c1 (stereo partly drawn) [Example 80, 1-[(6-{6,6-Difluoro-3-azabicyclo[3.1.0]hexan-3-yl}pyridin-3-yl)methyl]-N-[(4R)-1-methyl-1H,4H,5H,6H-cyclopenta[d]imidazol-4-yl]-1H-pyrazole-4-carboxamide]"
1.2,597,> 10000,"Cn1cnc2c1CC[C@H]2NC(=O)c1cnn(Cc2ccc(N3CC4CC4C3)nc2CO)c1 (stereo partly drawn) [Example 86, 1-[(6-{3-Azabicyclo[3.1.0]hexan-3-yl}-2-(hydroxymethyl)-pyridin-3-yl)methyl]-N-[(4R)-1-methyl-1H,4H,5H,6H-cyclopenta[d]imidazol-4-yl]-1H-pyrazole-4-carboxamide]"
0.7,126,> 10000,"Cc1nc(N2CC3C(C2)C3(F)F)ccc1Cn1cc(C(=O)N[C@@H]2CCc3c2ncn3C)cn1 (stereo partly drawn) [Example 90, 1-[(6-{6,6-Difluoro-3-azabicyclo[3.1.0]hexan-3-yl}-2-methylpyridin-3-yl)methyl]-N-[(4R)-1-methyl-1H,4H,5H,6H-cyclopenta[d]imidazol-4-yl]-1H-pyrazole-4-carboxamide]"
1,324,> 10000,"Cc1nc(N2CC3C(C2)C3(F)F)ccc1Cn1cc(C(=O)N[C@@H]2CCc3c2ncn3C)c(CO)n1 (stereo partly drawn) [Example 107, 1-[(6-{6,6-Difluoro-3-azabicyclo[3.1.0]hexan-3-yl}-2-methylpyridin-3-yl)methyl]-3-(hydroxymethyl)-N-[(4R)-1-methyl-1H,4H,5H,6H-cyclopenta[d]imidazol-4-yl]-1H-pyrazole-4-carboxamide]"
1.7,465,> 10000,"Cn1cnc2c1CC[C@H]2NC(=O)c1cn(Cc2ccc(N3CC4CC4C3)nc2F)cn1 (stereo partly drawn) [Example 108, 1-[(6-{3-Azabicyclo[3.1.0]hexan-3-yl}-2-fluoropyridin-3-yl)methyl]-N-[(4R)-1-methyl-1H,4H,5H,6H-cyclopenta[d]imidazol-4-yl]-1H-imidazole-4-carboxamide]"
0.9,784,> 10000,"CCCc1nc(N2CC3CC3C2)ccc1Cn1cnc(C(=O)N[C@@H]2CCc3c2ncn3C)c1 (stereo partly drawn) [Example 110, 1-[(6-{3-Azabicyclo[3.1.0]hexan-3-yl}-2-propylpyridin-3-yl)methyl]-N-[(4R)-1-methyl-1H,4H,5H,6H-cyclopenta[d]imidazol-4-yl]-1H-imidazole-4-carboxamide]"
1.8,14700,> 10000,"Cn1cnc2c1CC[C@H]2NC(=O)c1cnn(Cc2cnc(N3CC4CC4C3)c(C#N)c2)c1 (stereo partly drawn) [Example 114, 1-[(6-{3-Azabicyclo[3.1.0]hexan-3-yl}-5-cyanopyridin-3-yl)methyl]-N-[(4R)-1-methyl-1H,4H,5H,6H-cyclopenta[d]imidazol-4-yl]-1H-pyrazole-4-carboxamide]"
4.1,2660,> 10000,"Cn1cnc2c1CC[C@H]2NC(=O)c1cnn(Cc2cnc(N3CC4CC4C3)cc2C(F)(F)F)c1 (stereo partly drawn) [Example 115, 1-[(6-{3-Azabicyclo[3.1.0]hexan-3-yl}-4-(trifluoromethyl)pyridin-3-yl)methyl]-N-[(4R)-1-methyl-1H,4H,5H,6H-cyclopenta[d]imidazol-4-yl]-1H-pyrazole-4-carboxamide]"
0.4,278,871,"Cc1c(Cn2cc(C(=O)N[C@@H]3CCc4c3ncn4C)cn2)cnc(N2CC3CC3C2)c1C#N (stereo partly drawn) [Example 116, 1-[(6-{3-Azabicyclo[3.1.0]hexan-3-yl}-5-cyano-4-methylpyridin-3-yl)methyl]-N-[(4R)-1-methyl-1H,4H,5H,6H-cyclopenta[d]imidazol-4-yl]-1H-pyrazole-4-carboxamide]"
2.2,1540,> 10000,"Cn1cnc2c1CC[C@H]2NC(=O)c1cnn(Cc2ccc(N3CC4CC4C3)nc2C2CC2)c1 (stereo partly drawn) [Example 117, 1-[(6-{3-Azabicyclo[3.1.0]hexan-3-yl}-2-cyclopropylpyridin-3-yl)methyl]-N-[(4R)-1-methyl-1H,4H,5H,6H-cyclopenta[d]imidazol-4-yl]-1H-pyrazole-4-carboxamide]"
0.3,157,> 10000,"Cc1c(Cn2cnc(C(=O)N[C@@H]3CCc4c3ncn4C)c2)cnc(N2CC3CC3C2)c1C#N (stereo partly drawn) [Example 118, 1-[(6-{3-Azabicyclo[3.1.0]hexan-3-yl}-5-cyano-4-methylpyridin-3-yl)methyl]-N-[(4R)-1-methyl-1H,4H,5H,6H-cyclopenta[d]imidazol-4-yl]-1H-imidazole-4-carboxamide]"
1.2,1460,1060,"Cc1nc(N2CC3CC3C2)ccc1Cn1cc(C(=O)N[C@@H]2CCc3c2ncn3C)c(C(F)(F)F)n1 (stereo partly drawn) [Example 119, 1-[(6-{3-Azabicyclo[3.1.0]hexan-3-yl}-2-methylpyridin-3-yl)methyl]-N-[(4R)-1-methyl-1H,4H,5H,6H-cyclopenta[d]imidazol-4-yl]-3-(trifluoromethyl)-1H-pyrazole-4-carboxamide]"

# From patent publication US12479827B2, “Heteroaromatic carboxamide derivatives as plasma kallikrein inhibitors” (Boehringer Ingelheim International GmbH, priority 2020, dated 2025)
